“And” between values parts separate entries of the source, which are not always exact repeats. Equal entries are not always repeated.
CC(C)(C)C(O)/C(=C\c1ccc(Cl)cc1)n1cncn1 (stereo not drawn)
solubility (mole fraction)
Settings | 278.15 K | 283.15 K | 288.15 K | 293.15 K | 298.15 K | 303.15 K | 308.15 K | 313.15 K | 318.15 K | 323.15 K
in ethyl acetate | 0.0106 | 0.0112 | 0.016 | 0.0167 | 0.0187 | 0.0201 | 0.0253 | 0.028 | 0.035 | 0.0536
in ethylene glycol | 0.000907 | 0.000983 | 0.00103 | 0.00118 | 0.00128 | 0.00166 | 0.0018 | 0.00202 | 0.00248 | 0.0025
in isobutanol | 0.0157 | 0.0177 | 0.0185 | 0.0197 | 0.0225 | 0.0257 | 0.0261 | 0.0365 | 0.0425 | 0.0566
in isobutyl acetate | 0.00727 | 0.0102 | 0.0116 | 0.0136 | 0.0159 | 0.0199 | 0.0219 | 0.0263 | 0.0335 | 0.0423
in isopropanol | 0.0112 | 0.0122 | 0.0141 | 0.0157 | 0.0189 | 0.0248 | 0.0268 | 0.0326 | 0.038 | 0.047
in methyl acetate | 0.0084 | 0.00938 | 0.0116 | 0.0137 | 0.0151 | 0.0184 | 0.0214 | 0.0236 | 0.0318 | 0.0383
in n-butanol | 0.015 | 0.0171 | 0.0196 | 0.0221 | 0.0249 | 0.0309 | 0.0355 | 0.0406 | 0.0475 | 0.0623
in n-butyl acetate | 0.0118 | 0.0131 | 0.0153 | 0.0182 | 0.0204 | 0.0247 | 0.0291 | 0.0332 | 0.0364 | 0.0527
in n-octanol | 0.0159 | 0.0177 | 0.02 | 0.0225 | 0.0238 | 0.0255 | 0.0287 | 0.0369 | 0.044 | 0.0511
in n-propanol | 0.0143 | 0.0163 | 0.0196 | 0.0218 | 0.0231 | 0.0263 | 0.0273 | 0.0332 | 0.0441 | 0.0497
in n-propyl acetate | 0.0114 | 0.0123 | 0.0147 | 0.0169 | 0.0269 | 0.0277 | 0.0362 | 0.037 | 0.052 | 0.0556
in propylene glycol | 0.00332 | 0.00359 | 0.00423 | 0.00483 | 0.00737 | 0.00749 | 0.00874 | 0.0101 | 0.0139 | 0.0174
in water | 2.2e-06 and 3.2e-06 | 2.3e-06 and 3.6e-06 | 2.4e-06 | 2.6e-06 | 2.7e-06 | 2.8e-06 | 3e-06 | – | – | 4.2e-06
